One test concerns NSCLC. Briefly: Growth inhibition of human NSCLC cell by NCI-CLS assay. Format: functional.
The nature of test [1]: Growth inhibition of human colon cancer cell by NCI-CLS assay. Conditions: Cancer cell lines. Format: functional.
A short description of test [2]: Growth inhibition of human renal cancer cell by NCI-CLS assay. Format: functional. As to conditions: Cancer cell lines; for CC50: read-out: LC50 (the source's name).
The nature of test [3]: Growth inhibition of human CNS cancer cell by NCI-CLS assay. Conditions: Cancer cell lines; for CC50: read-out: LC50 (the source's name). Format: functional.
Test [4] in a line: Growth inhibition of human melanoma cell by NCI-CLS assay. Format: functional. Conditions: for CC50: read-out: LC50 (the source's name).
A short description of test [5]: Growth inhibition of human ovarian cancer cell by NCI-CLS assay. Format: functional. Conditions: Cancer cell lines; for CC50: read-out: LC50 (the source's name).
The nature of test [6]: Growth inhibition of human breast cancer cell by NCI-CLS assay. Format: functional. As to conditions: Cancer cell lines; for CC50: read-out: LC50 (the source's name).
Test [7] can be described thus: Growth inhibition of human leukemia cell by NCI-CLS assay. Format: functional.
A short description of test [8]: Growth inhibition of human prostate cancer cell by NCI-CLS assay. Format: functional. As to conditions: Cancer cell lines; for CC50: read-out: LC50 (the source's name).
Test [9] has as its target NAD(P)H dehydrogenase [quinone] 1 (Homo sapiens) (UniProt P15559). Description: Induction of NQO1 activity in HUVEC at 5 uM after 24 to 48 hrs by fluorescence plate reader.
The nature of test [10]: Antiproliferative activity against human B1647 cells after 2 days by MTT assay. Format: functional, cell-based. As to conditions: B1647, 48 h.
Test [11] can be described thus: Antiproliferative activity against human M07e cells after 2 days by MTT assay. Format: functional, cell-based. Conditions: M-07e, 48 h. Background: Formazan colour is commonly taken as a measure of viable cells.
The test system of the next test is HUVEC. Description: Cytotoxicity against HUVEC after 2 days by MTT assay. Format: cell-based. Conditions: Homo sapiens, 48 h.
Another test concerns HEL. Briefly: Antiproliferative activity against human HEL cells after 2 days by MTT assay. Format: functional, cell-based. Conditions: 48 h.

SMILES strings stand for the structures. Active and inactive are the calls of the source. The calls are words filed in the database; no cut-off is given here.

Nine compounds from ChEMBL document CHEMBL1157784, “Antitumor activity and COMPARE analysis of bis-indole derivatives” (Bioorg Med Chem, 2010) can be followed below.

As a reminder, the GI50 is the concentration that inhibits growth by half. As usually defined, the LC50 is the concentration lethal to half of the exposed cells or organisms. Low values mean greater toxicity, high ones lower toxicity. Broadly, the TGI is the concentration at which net growth stops. Higher therefore signals lower sensitivity of the cells. As usually defined, the IC50 is the concentration that gives 50% inhibition.

Chain of NAD(P)H dehydrogenase [quinone] 1 (Homo sapiens) (P15559 whole entry): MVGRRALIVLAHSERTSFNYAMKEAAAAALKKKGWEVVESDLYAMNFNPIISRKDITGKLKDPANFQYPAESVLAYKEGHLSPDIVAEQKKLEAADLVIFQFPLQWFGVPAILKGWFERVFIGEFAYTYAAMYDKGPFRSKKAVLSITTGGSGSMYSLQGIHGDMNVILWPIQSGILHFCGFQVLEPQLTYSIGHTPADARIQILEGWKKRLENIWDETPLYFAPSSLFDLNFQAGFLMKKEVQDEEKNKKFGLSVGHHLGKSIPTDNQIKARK

On to `Cc1[nH]c(C)c(/C=C2/C(=O)Nc3ccc(F)cc32)c1/C=C1/C(=O)Nc2ccc(F)cc21`, for which the GI50 with NSCLC stood at 7.8 µM; in test [1], 5 µM; in [2], 9.1 µM; in test [3], 3.4 µM; in test [4] it was 5.1 µM; in test [5], 8.1 µM. Further, the GI50 stood at 4.9 µM in test [6], 2.4 µM in test [7] and 7.9 µM in test [8]. In addition, the results for the 50% lethal concentration (LC50) (in the test on NSCLC; in [1]; in test [7]) were 74.1 µM, 53.7 µM and 37.1 µM, respectively. The TGI with NSCLC turned out to be 25.1 µM; in test [1] it was 17 µM; in test [2], 32.4 µM; in test [3], 13.2 µM; in test [4], 18.2 µM; in test [5], 25.7 µM. Further, the TGI in test [6] was determined as 22.4 µM; in [7], 9.1 µM; in test [8], 20.4 µM. Besides, the CC50 is 75.9 µM in test [2]; 46.8 µM in test [3]; 52.5 µM in [4]; 72.4 µM in [5]; 70.8 µM in [6]; 44.7 µM in test [8].
Consider `O=C1Nc2cc(OC(F)(F)F)ccc2/C1=C\c1cccc(/C=C2/C(=O)Nc3cc(OC(F)(F)F)ccc32)n1`, for which the GI50 in the test on NSCLC worked out at 0.4 µM; in [1], 0.2 µM; in test [2] it was 0.3 µM; in test [3], 0.3 µM; in test [4] it was 0.4 µM; in [5] it was 0.4 µM. The GI50 in test [6] is 0.3 µM; in test [7], 0.2 µM; in [8], 0.1 µM. The LC50 was determined as 15.5 µM with NSCLC and 2 µM in [1]. Moreover, the TGI worked out at 1.9 µM in the test on NSCLC; 0.5 µM in [1]; 0.7 µM in test [2]; 0.8 µM in test [3]; 1.1 µM in test [4]; 2.5 µM in test [5]. Moreover, the TGI in [6] was found to be 2 µM; in test [7] it was 8.9 µM; in [8], 0.3 µM. The result in test [9] was Active. Further, the IC50 is 3 µM in test [10], 3 µM in [11], less than 5 µM in the test with HUVEC and 3 µM in the test on HEL. Besides, the CC50 in [2] came to 2.9 µM; in test [3], 2.6 µM; in [4], 5.7 µM; in test [5], 12.3 µM; in test [6] it was 15.8 µM; in test [8] it was 3.2 µM.
For `C[S+]([O-])CCCCN=C=S` (stereo not drawn), the result in test [9] was Active.
As for `O=C1Nc2cccc(I)c2/C1=C\c1cccc(/C=C2/C(=O)Nc3cccc(I)c32)n1`, the GI50 in the test with NSCLC turned out to be 1.3 µM; in test [1], 0.5 µM; in test [2] it was 0.9 µM; in test [3] it was 1.2 µM; in test [4], 1 µM; in [5] it was 1.1 µM. For the same compound, the GI50 was 0.8 µM in test [6], 0.9 µM in test [7] and 0.6 µM in [8]. Besides, the LC50 is 21.9 µM with NSCLC and 7.6 µM in [1]. In addition, the TGI was determined as 5 µM with NSCLC; 1.9 µM in test [1]; 2.6 µM in test [2]; 4 µM in test [3]; 3.2 µM in test [4]; 5.6 µM in test [5]. In addition, the figures for the TGI in test [6], in [7] and in test [8] were 4.4 µM, 30.9 µM and 2.2 µM, respectively. The CC50 in test [2] turned out to be 8.3 µM; in test [3], 13.8 µM; in [4], 13.5 µM; in [5], 22.4 µM; in [6], 21.9 µM; in test [8] it was 24 µM.
With `O=C1Nc2cccc(Cl)c2/C1=C\c1ccc2ccc3ccc(/C=C4/C(=O)Nc5cccc(Cl)c54)nc3c2n1`, the GI50 in the test with NSCLC came to 25.7 µM; in test [1], 3.9 µM; in test [2], 9.5 µM; in test [3], 7.4 µM; in test [4] it was 13.2 µM; in test [5] it was 6.2 µM. The GI50 in test [6] was 14.4 µM; in test [7], 1.1 µM; in test [8], 3.8 µM. The TGI in the test on NSCLC was 79.4 µM; in test [1] it was 30.9 µM; in [2], 58.9 µM; in [3], 34.7 µM; in test [4] it was 42.7 µM; in test [5], 30.9 µM. Besides, the TGI in test [6] was found to be 70.8 µM; in test [7], 30.2 µM; in test [8], 31.6 µM. In test [1], this compound registered an LC50 of 79.4 µM. In addition, the CC50 in [2] stood at 97.7 µM; in test [3] it was 77.6 µM; in [4] it was 61.7 µM; in [5], 70.8 µM; in [6] it was 93.3 µM; in [8], 79.4 µM.
In the case of `O=C1Nc2c(ccc3ccccc23)/C1=C\c1cccc(/C=C2/C(=O)Nc3c2ccc2ccccc32)n1`, the 50% growth inhibitory concentration (GI50) with NSCLC worked out at 24 µM; in test [1] it was 14.4 µM; in test [2] it was 17 µM; in test [3], 15.8 µM; in test [4] it was 13.8 µM; in test [5], 19 µM. Further, the GI50 in test [6] stood at 17.8 µM; in test [7], 1.5 µM; in test [8], 21.9 µM. In addition, the LC50 in the test with NSCLC is 89.1 µM; in [1] it was 83.2 µM; in test [7] it was 77.6 µM. Moreover, the TGI was found to be 57.5 µM in the test on NSCLC; 44.7 µM in test [1]; 41.7 µM in test [2]; 49 µM in test [3]; 38 µM in test [4]; 56.2 µM in test [5]. Further, the TGI in test [6] was determined as 69.2 µM; in test [7], 10 µM; in [8], 81.3 µM. Further, the CC50 in test [2] was found to be 79.4 µM; in [3], 85.1 µM; in test [4], 77.6 µM; in test [5] it was 91.2 µM; in [6], 97.7 µM.
As to `COc1ccc2c(c1)/C(=C\c1ccc3ccc4ccc(/C=C5/C(=O)Nc6ccc(OC)cc65)nc4c3n1)C(=O)N2`, the GI50 came to 3.2 µM in the test with NSCLC; 2.8 µM in test [1]; 3.3 µM in test [2]; 3.8 µM in [3]; 3.2 µM in [4]; 5.5 µM in test [5]. In addition, the GI50 in [6] came to 3.9 µM; in test [7], 3 µM; in [8], 3.7 µM. Further, the LC50 in the test with NSCLC came out at 75.9 µM. Besides, the TGI in the test on NSCLC amounted to 28.2 µM; in [1], 16.2 µM; in [2] it was 19.5 µM; in [4], 11.5 µM; in test [5] it was 58.9 µM; in test [6], 75.9 µM. For the same compound, the total growth inhibition concentration (TGI) in test [7] was 60.3 µM; in test [8] it was 36.3 µM. The results for the CC50 in [2] and in test [4] were 97.7 µM and 74.1 µM, respectively.
Regarding `CC(C)(C)c1cc(/C=C2/C(=O)Nc3cccc(Cl)c32)c(O)c(/C=C2/C(=O)Nc3cccc(Cl)c32)c1`, the 50% growth inhibitory concentration (GI50) in the test with NSCLC is 3.5 µM; in [1] it was 2.2 µM; in test [2], 3.6 µM; in test [3] it was 2.3 µM; in test [4], 2.9 µM; in [5], 2.2 µM. The values for the GI50 in test [6], in test [7] and in test [8] were 2.4 µM, 2.8 µM and 2.2 µM, respectively. For the same compound, the values for the LC50 (with NSCLC; in test [1]) were 64.6 µM and 21.9 µM, respectively. For the same compound, the TGI with NSCLC was 15.1 µM; in [1] it was 6.2 µM; in [2], 15.8 µM; in [3] it was 11 µM; in [4], 9.3 µM; in [5], 15.8 µM. Further, the concentration for total growth inhibition (TGI) in test [6] worked out at 11.5 µM; in test [7], 46.8 µM; in [8], 10.2 µM. Further, the CC50 was 56.2 µM in test [2]; 58.9 µM in test [3]; 36.3 µM in [4]; 44.7 µM in [5]; 67.6 µM in [6]; 72.4 µM in test [8].
Consider `O=Cc1cccc(/C=C2/C(=O)Nc3c2ccc2ccccc32)n1`, for which the GI50 in the test on NSCLC is 14.4 µM; in test [1], 9.5 µM; in test [2], 10.7 µM; in [3] it was 11.2 µM; in test [4], 11.5 µM; in [5], 8.7 µM. Moreover, the GI50 in test [6] amounted to 6.2 µM; in [7] it was 2.5 µM; in test [8], 5.7 µM. For the same compound, the figures for the LC50 (in the test with NSCLC; in test [1]) were 85.1 µM and 83.2 µM, respectively. The TGI in the test with NSCLC stood at 37.1 µM; in test [1], 44.7 µM; in test [2] it was 26.9 µM; in test [3] it was 33.9 µM; in test [4], 35.5 µM; in [5], 30.9 µM. Also, the total growth inhibition concentration (TGI) in test [6] came to 45.7 µM; in test [7] it was 7.6 µM; in test [8], 33.1 µM. Also, the CC50 in test [2] was 74.1 µM; in test [3], 91.2 µM; in test [4] it was 72.4 µM; in test [5] it was 72.4 µM; in [6], 79.4 µM; in test [8], 97.7 µM.
